Measurements taken from patent publication US12622872B2, “Process for the preparation of sterile ophthalmic aqueous fluticasone propionate form a nanocrystals suspensions” (Nicox Ophthalmics, Inc., priority 2019, dated 2026).

Columns and labels:
[1] = 14-day repeated dose study, plasma toxicokinetics; set-up: species or system Beagle dogs; conditions: dog, in vivo
Text: The purpose of this study was to evaluate the toxicokinetic of fluticasone propionate Form A nanosuspensions of the invention (see Table 10 below) administered via topical application directly to the rim (margin) of upper and lower eyelids of both eyes of Beagle dogs.
Fifty naïve Beagle dogs (25 males and 25 females), approximately 5-6 months old and weighing 5.7 to 8.8 kg for males and females at the outset of the study were assigned to treatment groups (groups 1-4) and to vehicle group.
Male and female Beagle dogs were dosed with fluticasone propionate at 1.6, 9.6, and 32 μg/day (bilateral QD topical application) or at 64 μg/day (bilateral BID topical application) via eye lid applicator directly to the upper and lower eyelids of both eyes once or twice daily (minimum of 6 hours between doses) for 14 consecutive days.
Blood for toxicokinetic evaluation was collected from all animals at selected time points on Days 1 and 14.

[2] = In vitro dissolution test (compartment diffusion through dialysis membrane, sink condition); type: physicochemical
Experimental: Dissolution profiles of nanocrystals of Fluticasone propionate form A of two nanosuspensions of the invention and of Fluticasone propionate form 1 micronized were performed using a dissolution method.
The study was performed using a compartment diffusion analysis through a dialysis membrane and sink condition. The sink condition was achieved through the use of a receptor fluid containing 30 mM phosphate buffer, pH 7.4 with 5% HPβCD cyclodextrins and also by a complete replacement of the buffer every 24 hours to stay below the saturation point. The saturation point was estimated to be 5 μg/g under those experimental conditions and the measurements performed as well as the buffer replacement have shown a maximum concentration of 1.5 μg/g. The study was conducted at a temperature of 37° C. The details of the dissolution test method are provided below:
A 5-fold dilution with the formulation vehicle (placebo solution containing all the formulation excipients including the surfactants) of two 0.1% w/w Fluticasone propionate form A nanosuspensions was conducted to obtain a final concentration of 0.02% w/w Fluticasone propionate inside the dialysis device.
Fluticasone propionate form 1 micronized was suspended in the same phosphate buffer used in the receiving compartment of the dialysis system.
Fluticasone propionate release was carried at 1-2 RPM. […]
These aliquots were immediately centrifuged and the measurements were performed by HPLC

[3] = 1 h, second nanosuspension (Table 8)
[4] = 3 h, second nanosuspension (Table 8)
[5] = 5 h, second nanosuspension (Table 8)
[6] = 19 h, second nanosuspension (Table 8)

Structure (SMILES)	% Dissolution Average % ([2]; 1 h) [%]	% Dissolution Tube #1 ([2]; 1 h) [%]	% Dissolution Tube #2 ([2]; 1 h) [%]	% Dissolution Tube #3 ([2]; 1 h) [%]	% Dissolution Average % ([2]; 3 h) [%]	% Dissolution Tube #1 ([2]; 3 h) [%]	% Dissolution Tube #2 ([2]; 3 h) [%]	% Dissolution Tube #3 ([2]; 3 h) [%]	% Dissolution Average % ([2]; 5 h) [%]	% Dissolution Tube #1 ([2]; 5 h) [%]	% Dissolution Tube #2 ([2]; 5 h) [%]	% Dissolution Tube #3 ([2]; 5 h) [%]	other results
CCC(=O)O[C@]1(C(=O)SCF)[C@H](C)C[C@H]2[C@@H]3C[C@H](F)C4=CC(=O)C=C[C@]4(C)[C@@]3(F)[C@@H](O)C[C@@]21C [Fluticasone Propionate, fluticasone propionate]	–	–	–	–	–	–	–	–	–	–	–	–	Dose dependence of exposure [1]: dose-dependent; Gender-related differences in exposure [1]: no discernable gender-related differences; maximum concentration in the receptor fluid ([2]; receptor fluid 30 mM phosphate buffer, pH 7.4 with 5% HPβCD, 37° C.): 1.5 µg/g
CCC(=O)O[C@]1(C(=O)SCF)[C@H](C)C[C@H]2[C@@H]3C[C@H](F)C4=CC(=O)C=C[C@]4(C)[C@@]3(F)[C@@H](O)C[C@@]21C [Fluticasone propionate form A nanocrystals]	0.0	0.0	0.0	0.0	0.8	0.2	1.4	0.7	2.2	1.3	2.8	2.4	% Dissolution Average % [2, 3]: 0.0%; % Dissolution Tube #1 [2, 3]: 0.0%; % Dissolution Tube #2 [2, 3]: 0.0%; % Dissolution Tube #3 [2, 3]: 0.0%; % Dissolution Average % [2, 4]: 0.7%; % Dissolution Tube #1 [2, 4]: 0.6%; % Dissolution Tube #2 [2, 4]: 0.5%; % Dissolution Tube #3 [2, 4]: 0.8%; % Dissolution Average % [2, 5]: 2.3%; % Dissolution Tube #1 [2, 5]: 2.4%; % Dissolution Tube #2 [2, 5]: 2.0%; % Dissolution Tube #3 [2, 5]: 2.6%; % Dissolution Average % [2, 6]: 19.0%; % Dissolution Tube #1 [2, 6]: 19.0%; % Dissolution Tube #2 ([2]; 24 h): 24.0%; % Dissolution Tube #3 ([2]; 72 h): 74.0%; dissolution profile compared with Fluticasone propionate form 1 micronized material ([2]; tables 7-9): similar
CCC(=O)O[C@]1(C(=O)SCF)[C@H](C)C[C@H]2[C@@H]3C[C@H](F)C4=CC(=O)C=C[C@]4(C)[C@@]3(F)[C@@H](O)C[C@@]21C [Micronized Fluticasone propionate form 1, fluticasone propionate]	0.0	0.0	0.0	0.0	0.7	0.8	0.5	0.9	2.6	2.9	1.9	3.0	% Dissolution Tube #2 ([2]; 48 h): 44.0%
